The conditions of this series: Liquid; for mass density: 298.15 K, 101.33 kPa, Pycnometric method; for Normal boiling temperature: Distillation.

± gives the expanded uncertainty stated by the source.

Broadly, the mass density is the mass of a sample divided by its volume.

For `CC(C)CO` [2-methyl-1-propanol], the mass density is reported as 797.8 ± 0.7 kg/m3 and the Normal boiling temperature was 107.77 ± 0.1 °C. As for `CCCCO` [butan-1-ol], the mass density is reported as 805.8 ± 0.7 kg/m3. As to `CCC(C)O` (stereo not given) [butan-2-ol], the mass density was 802.4 ± 0.7 kg/m3 and the Normal boiling temperature was 99.46 ± 0.1 °C.
